Results from PMC11062899, “De novo development of small cyclic peptides that are orally bioavailable” (Nature Chemical Biology, 2023).
Several values for one entry are separate records, joined by “and”; a condition that tells them apart may be missing. Equal entries are not always repeated. Where two headings read alike, the source gives them in different places.

Experiments:
rat α-thrombin = target: T1, rat α-thrombin (Rattus norvegicus, UniProt P18292); test: Protease inhibition, Ki for rat α-thrombin (fluorogenic substrate Z-Gly-Gly-Arg-AMC); format: biochemical; conditions: rat alpha thrombin; for Slope normalized to DMSO (proteolytic substrate cleavage over time): replicates R1-R3
T1 construct: rat α-thrombin (Molecular Innovations) were used at final concentrations of 2 nM and 3 nM; purchased Molecular Innovations
Outline: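 Inhibition was measured as AMC fluorescence from 50 μM substrate, monitored for 30 min at 25 °C, relative to a peptide-free control. Human and rat enzymes were present at 2 nM and 3 nM final, respectively, in 50 mM Tris-HCl pH 7.4, 150 mM NaCl, 10 mM MgCl2, 1 mM CaCl2. Ki derives from fitted IC50 via Cheng–Prusoff.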

porcine pepsin = target: T2, porcine pepsin (Sus scrofa, UniProt P00791); test: Peptide stability in simulated gastric fluid (SGF); format: in vitro ADME
T2 construct: 0.32 g of porcine pepsin (Sigma-Aldrich, P7125) was dissolved under gentle agitation; purchased Sigma-Aldrich P7125
Outline: (§1)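 Peptide from a 1 mM DMSO stock was added to fluid pre-warmed at 37 °C. SGF was pH 1.2 NaCl with porcine pepsin (0.32 g per 100 ml), and SIF was pH 6.8 potassium phosphate with porcine pancreatin (1 g per 100 ml). Supernatant peptide was quantified by LC–MS, with residual expressed as T1/T0.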

[1] = Peptide stability in simulated intestinal fluid (SIF); format: in vitro ADME, porcine; conditions: simulated gi fluid; 8 h, 37 °C, pH 6.8; read-out: Proteolytic stability: SIF (8 h) % remaining
Outline: as §1

porcine pancreatin = test: as above; format: in vitro ADME; conditions: after 8 h vs 0 h (TIC)
Outline: as §1

[2] = Passive artificial membrane permeability (PAMPA)
[3] = Metabolic stability in rat liver microsomes (RLMs); conditions: for microsomal CLint / half-life: rat

T2 sequence (P00791 60-385): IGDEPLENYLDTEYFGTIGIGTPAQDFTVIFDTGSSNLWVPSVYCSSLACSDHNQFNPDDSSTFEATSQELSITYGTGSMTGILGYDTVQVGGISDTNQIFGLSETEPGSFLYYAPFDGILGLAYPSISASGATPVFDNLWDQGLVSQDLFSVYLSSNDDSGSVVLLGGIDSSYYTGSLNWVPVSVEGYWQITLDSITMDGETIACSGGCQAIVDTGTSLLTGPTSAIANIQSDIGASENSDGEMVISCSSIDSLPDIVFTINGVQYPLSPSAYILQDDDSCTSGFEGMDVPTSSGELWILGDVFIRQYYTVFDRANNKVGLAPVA

Ki (rat α-thrombin; average of R1-R3, read-out: Ki Average, rat alpha thrombin inhibition): 0.0061 µM | Slope normalized to DMSO (proteolytic substrate cleavage over time) (rat α-thrombin; peptide 1.02E-03 uM): 78.7 and 76.8 and 72.0 | Slope normalized to DMSO (proteolytic substrate cleavage over time) (rat α-thrombin; peptide 1.04E+00 uM): 7.3 and 7.7 and 6.8 | Slope normalized to DMSO (proteolytic substrate cleavage over time) (rat α-thrombin; peptide 1.27E-04 uM): 95.1 and 95.2 and 91.8 | Slope normalized to DMSO (proteolytic substrate cleavage over time) (rat α-thrombin; peptide 1.30E-01 uM): 20.8 and 21.8 and 17.8 | Slope normalized to DMSO (proteolytic substrate cleavage over time) (rat α-thrombin; peptide 1.59E-05 uM): 100.8 and 100.5 and 95.6 | Slope normalized to DMSO (proteolytic substrate cleavage over time) (rat α-thrombin; peptide 1.63E-02 uM): 48.6 and 45.6 and 41.9 | Slope normalized to DMSO (proteolytic substrate cleavage over time) (rat α-thrombin; peptide 1.67E+01 uM): 5.6 and 6.1 and 3.4 | Slope normalized to DMSO (proteolytic substrate cleavage over time) (rat α-thrombin; peptide 2.03E-03 uM): 77.5 and 75.6 and 71.7 | Slope normalized to DMSO (proteolytic substrate cleavage over time) (rat α-thrombin; peptide 2.08E+00 uM): 5.5 and 7.4 and 5.0 | Slope normalized to DMSO (proteolytic substrate cleavage over time) (rat α-thrombin; peptide 2.54E-04 uM): 90.6 and 89.3 and 85.2 | Slope normalized to DMSO (proteolytic substrate cleavage over time) (rat α-thrombin; peptide 2.60E-01 uM): 14.5 and 13.9 and 10.9 | Slope normalized to DMSO (proteolytic substrate cleavage over time) (rat α-thrombin; peptide 3.18E-05 uM): 98.5 and 99.4 and 94.0 | Slope normalized to DMSO (proteolytic substrate cleavage over time) (rat α-thrombin; peptide 3.26E-02 uM): 34.9 (2×) and 30.9 | Slope normalized to DMSO (proteolytic substrate cleavage over time) (rat α-thrombin; peptide 3.33E+01 uM): 5.6 and 5.2 and 4.6 | Slope normalized to DMSO (proteolytic substrate cleavage over time) (rat α-thrombin; peptide 4.07E-03 uM): 74.5 and 73.2 and 65.7 | Slope normalized to DMSO (proteolytic substrate cleavage over time) (rat α-thrombin; peptide 4.17E+00 uM): 6.0 and 6.5 and 4.6 | Slope normalized to DMSO (proteolytic substrate cleavage over time) (rat α-thrombin; peptide 5.09E-04 uM): 86.5 and 86.6 and 79.6 | Slope normalized to DMSO (proteolytic substrate cleavage over time) (rat α-thrombin; peptide 5.21E-01 uM): 8.9 and 10.7 and 8.6 | Slope normalized to DMSO (proteolytic substrate cleavage over time) (rat α-thrombin; peptide 6.36E-05 uM): 95.0 and 93.8 and 92.2 | Slope normalized to DMSO (proteolytic substrate cleavage over time) (rat α-thrombin; peptide 6.51E-02 uM): 29.2 and 28.9 and 23.7 | Slope normalized to DMSO (proteolytic substrate cleavage over time) (rat α-thrombin; peptide 6.67E+01 uM): 6.0 and 6.3 and 4.0 | Slope normalized to DMSO (proteolytic substrate cleavage over time) (rat α-thrombin; peptide 7.95E-06 uM): 103.6 and 102.5 and 98.1 | Slope normalized to DMSO (proteolytic substrate cleavage over time) (rat α-thrombin; peptide 8.14E-03 uM): 62.2 and 57.8 and 53.3 | Slope normalized to DMSO (proteolytic substrate cleavage over time) (rat α-thrombin; peptide 8.33E+00 uM): 4.9 and 6.7 and 5.0 | IC50 (rat α-thrombin; single replicates R1-R3, read-out: IC50, rat alpha thrombin inhibition): 0.013 µM and 0.0109 µM and 0.00919 µM | SGF stability, Residual peptide Average (porcine pepsin; after 8 h vs 0 h (TIC), average of R1-R3): 99.21 | SGF stability, Residual peptide (porcine pepsin; after 8 h vs 0 h (TIC), single replicates R1-R3): 107.50 and 92.24 and 97.90 | remaining at 8 h (porcine pepsin; simulated gi fluid, 8 h, 37 °C, pH 1.2, read-out: Proteolytic stability: SGF (8 h) % remaining): 99 ± 8% | remaining at 8 h [1]: 63 ± 6% | SIF stability, Residual peptide Average (porcine pancreatin; average of R1-R3): 62.79 | SIF stability, Residual peptide (porcine pancreatin; single replicates R1-R3): 66.10 and 55.58 and 66.70 | PAMPA permeability: % permeability ([2]; 50 μM, 12–18 h, acceptor concentration relative to equilibrium): 37 ± 1% | Papp at 50 μM ([2]; PAMPA, pH 7.4): 4.57 ×10⁻⁶ cm/s | Permeability% Average ([2]; top well sample vs theoretical equilibrium sample (TIC), average of R1-R3): 37.0% | Permeability% ([2]; top well sample vs theoretical equilibrium sample (TIC), single replicates R1-R3): 36.96% and 38.34% and 35.81% | TIC value of compound, 0 min, R1 ([3]; rat liver microsomes, 0 min, replicate R1): 12429096 | TIC value of compound, 0 min, R3 ([3]; rat liver microsomes, 0 min, replicate R3): 11063826 | TIC value of compound, 5 min, R1 ([3]; rat liver microsomes, 5 min, replicate R1): 11351623 | TIC value of compound, 5 min, R3 ([3]; rat liver microsomes, 5 min, replicate R3): 10806046 | TIC value of compound, 15 min, R1 ([3]; rat liver microsomes, 15 min, replicate R1): 7245055 | TIC value of compound, 15 min, R3 ([3]; rat liver microsomes, 15 min, replicate R3): 6630237 | TIC value of compound, 30 min, R1 ([3]; rat liver microsomes, 30 min, replicate R1): 4320756 | TIC value of compound, 30 min, R3 ([3]; rat liver microsomes, 30 min, replicate R3): 3830533 | TIC value of compound, 60 min, R1 ([3]; rat liver microsomes, 60 min, replicate R1): 1228797 | TIC value of compound, 60 min, R3 ([3]; rat liver microsomes, 60 min, replicate R3): 1213522 | microsomal CLint ([3]; CL (ul/min/mg protein), R1, RLM CL, replicate R1, unrounded): 69.7 µL/min/mg | microsomal CLint ([3]; CL (ul/min/mg protein), R2, RLM CL, replicate R2, unrounded): 85.6 µL/min/mg | microsomal CLint ([3]; CL (ul/min/mg protein), R3, RLM CL, replicate R3, unrounded): 66.4 µL/min/mg | half-life ([3]; Half Life (min), R1, RLM metabolic stability, replicate R1): 19.9 min | half-life ([3]; Half Life (min), R2, RLM metabolic stability, replicate R2): 16.2 min | half-life ([3]; Half Life (min), R3, RLM metabolic stability, replicate R3): 20.9 min | half-life ([3]; microsomes, Metabolic stability: Half life T1/2 (min), RLMs, mean and SD, three measurements): 19 ± 2 min | microsomal CLint ([3]; microsomes, Metabolic stability: RLM CL (ul/min/mg), RLMs, mean and SD, three measurements): 74 ± 8 µL/min/mg | microsomal CLint ([3]; microsomes, RLM CL, Average, average of R1-R3): 73.9 µL/min/mg | microsomal CLint ([3]; microsomes, RLM CL, R1, RLM CL, replicate R1, summary block): 69.7 µL/min/mg | microsomal CLint ([3]; microsomes, RLM CL, R2, RLM CL, replicate R2, summary block): 85.6 µL/min/mg | microsomal CLint ([3]; microsomes, RLM CL, R3, RLM CL, replicate R3, summary block): 66.4 µL/min/mg
SMILES: O=C1C[C@H]2CCCN2C(=O)[C@H](Cc2ccccc2)NC(=O)[C@@H](NC(=O)c2ccc(Cl)s2)CCSC/C=C/CSCCN1 [compound 34]
Ki (rat α-thrombin; single replicates R1-R3, read-out: Ki, rat alpha thrombin inhibition): 7.18 nM and 6.01 nM (2×) and 5.09 nM (2×) and 7.19 nM
